Where “and” joins values, the source holds several entries; their conditions need not be identical. Equal values may be shown once. Read-outs that look alike come from different tables or passages of the source.

By IC50 is commonly meant the concentration that gives 50% inhibition.

One assay deals with YES (Homo sapiens, UniProt P07947). Put plainly: Kinase enzyme activity assay (mobility shift assay, Carna). The settings on record: 1 µmol/L of BTK inhibitor.
For another assay, the target named is T1, SRC (Homo sapiens, UniProt P12931).
T1 construct: purchased Carna Biosciences
Put plainly: Kinase panel profiling at 1 µmol/L (mobility shift assay, Carna). The assay is classed as biochemical. The settings on record: 1 µmol/L of BTK inhibitor.

For a further assay, the target named is T2, CK1γ3 (Homo sapiens, UniProt Q9Y6M4).
T2 construct: purchased Carna Biosciences
T2 sequence (Q9Y6M4 whole entry): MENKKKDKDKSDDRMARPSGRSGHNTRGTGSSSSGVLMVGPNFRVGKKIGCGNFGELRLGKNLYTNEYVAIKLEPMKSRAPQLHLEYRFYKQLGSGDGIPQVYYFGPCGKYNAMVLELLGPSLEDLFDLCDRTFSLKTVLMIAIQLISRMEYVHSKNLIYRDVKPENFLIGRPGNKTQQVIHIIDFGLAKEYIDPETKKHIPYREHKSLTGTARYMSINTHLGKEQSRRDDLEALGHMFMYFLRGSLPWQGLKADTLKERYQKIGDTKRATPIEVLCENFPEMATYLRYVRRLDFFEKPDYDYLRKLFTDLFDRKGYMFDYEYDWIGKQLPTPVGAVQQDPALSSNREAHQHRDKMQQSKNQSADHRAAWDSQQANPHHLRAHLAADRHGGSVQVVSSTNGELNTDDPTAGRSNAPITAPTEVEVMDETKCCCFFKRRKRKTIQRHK
The assay is described as above. The assay is classed as biochemical. The conditions noted are these: 1 µmol/L of BTK inhibitor.

The target of the next assay is T3, EPHB2 (Homo sapiens, UniProt P29323).
T3 construct: purchased Carna Biosciences
T3 sequence (P29323 19-1055): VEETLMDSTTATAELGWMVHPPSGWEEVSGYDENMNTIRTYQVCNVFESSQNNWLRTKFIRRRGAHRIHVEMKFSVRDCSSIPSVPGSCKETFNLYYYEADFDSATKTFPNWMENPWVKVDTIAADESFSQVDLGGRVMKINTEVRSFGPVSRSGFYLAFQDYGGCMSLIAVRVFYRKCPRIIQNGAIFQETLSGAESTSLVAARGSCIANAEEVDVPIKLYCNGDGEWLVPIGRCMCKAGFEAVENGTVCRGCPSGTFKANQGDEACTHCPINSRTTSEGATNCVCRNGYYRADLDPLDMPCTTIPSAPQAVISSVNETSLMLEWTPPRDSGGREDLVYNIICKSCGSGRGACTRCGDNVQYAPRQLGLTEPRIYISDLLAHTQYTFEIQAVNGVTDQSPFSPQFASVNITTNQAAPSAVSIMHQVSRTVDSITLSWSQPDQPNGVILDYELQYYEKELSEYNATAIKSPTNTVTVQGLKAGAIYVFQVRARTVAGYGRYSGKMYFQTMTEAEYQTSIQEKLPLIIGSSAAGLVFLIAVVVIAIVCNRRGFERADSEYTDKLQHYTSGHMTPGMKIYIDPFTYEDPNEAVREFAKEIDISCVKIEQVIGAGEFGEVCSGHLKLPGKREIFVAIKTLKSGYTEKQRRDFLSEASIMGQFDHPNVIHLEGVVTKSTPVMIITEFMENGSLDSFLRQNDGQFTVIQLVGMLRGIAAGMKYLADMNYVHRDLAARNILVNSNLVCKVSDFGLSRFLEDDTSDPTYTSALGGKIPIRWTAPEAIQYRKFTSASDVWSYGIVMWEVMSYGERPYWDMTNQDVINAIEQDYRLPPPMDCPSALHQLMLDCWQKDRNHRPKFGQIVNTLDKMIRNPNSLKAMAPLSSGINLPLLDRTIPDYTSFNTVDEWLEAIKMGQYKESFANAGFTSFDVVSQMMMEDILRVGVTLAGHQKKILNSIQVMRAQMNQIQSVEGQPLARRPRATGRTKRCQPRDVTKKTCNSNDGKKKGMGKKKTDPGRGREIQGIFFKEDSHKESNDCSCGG
The description is as above. Format: biochemical. The settings on record: 1 µmol/L of BTK inhibitor.

The next assay concerns the target T4, p70S6K (Homo sapiens, UniProt P23443).
T4 construct: purchased Carna Biosciences
Described as above. The assay is classed as biochemical. The settings on record: 1 µmol/L of BTK inhibitor.

In the next assay the target is T5, SIK (Homo sapiens, UniProt P57059).
T5 construct: purchased Carna Biosciences
T5 sequence (P57059 whole entry): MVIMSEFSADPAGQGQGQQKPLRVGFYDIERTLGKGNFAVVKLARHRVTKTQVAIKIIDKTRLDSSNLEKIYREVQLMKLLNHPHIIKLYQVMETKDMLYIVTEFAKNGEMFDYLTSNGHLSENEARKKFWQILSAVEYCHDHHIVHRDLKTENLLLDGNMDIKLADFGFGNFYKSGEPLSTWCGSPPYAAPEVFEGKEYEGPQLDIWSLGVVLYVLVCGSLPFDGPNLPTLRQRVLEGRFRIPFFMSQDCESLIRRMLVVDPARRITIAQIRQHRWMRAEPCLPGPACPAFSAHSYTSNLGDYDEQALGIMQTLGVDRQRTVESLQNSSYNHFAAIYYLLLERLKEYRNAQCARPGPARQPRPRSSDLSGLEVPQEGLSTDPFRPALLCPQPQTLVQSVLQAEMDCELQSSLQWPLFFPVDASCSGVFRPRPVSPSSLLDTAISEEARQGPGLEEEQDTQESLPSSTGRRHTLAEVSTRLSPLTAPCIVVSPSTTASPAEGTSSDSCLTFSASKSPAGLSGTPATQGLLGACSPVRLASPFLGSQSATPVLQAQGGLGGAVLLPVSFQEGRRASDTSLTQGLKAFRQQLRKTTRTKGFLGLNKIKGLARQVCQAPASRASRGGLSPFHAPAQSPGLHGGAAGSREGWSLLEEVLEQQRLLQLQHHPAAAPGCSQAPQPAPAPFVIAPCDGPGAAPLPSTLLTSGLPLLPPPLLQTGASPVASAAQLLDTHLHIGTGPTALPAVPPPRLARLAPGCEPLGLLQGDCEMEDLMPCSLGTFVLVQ
The description is as above. The conditions noted are these: 1 µmol/L of BTK inhibitor. Format: biochemical.

Another assay has as its target T6, EEF2K (Homo sapiens, UniProt O00418).
T6 construct: purchased Carna Biosciences
T6 sequence (O00418 1-725): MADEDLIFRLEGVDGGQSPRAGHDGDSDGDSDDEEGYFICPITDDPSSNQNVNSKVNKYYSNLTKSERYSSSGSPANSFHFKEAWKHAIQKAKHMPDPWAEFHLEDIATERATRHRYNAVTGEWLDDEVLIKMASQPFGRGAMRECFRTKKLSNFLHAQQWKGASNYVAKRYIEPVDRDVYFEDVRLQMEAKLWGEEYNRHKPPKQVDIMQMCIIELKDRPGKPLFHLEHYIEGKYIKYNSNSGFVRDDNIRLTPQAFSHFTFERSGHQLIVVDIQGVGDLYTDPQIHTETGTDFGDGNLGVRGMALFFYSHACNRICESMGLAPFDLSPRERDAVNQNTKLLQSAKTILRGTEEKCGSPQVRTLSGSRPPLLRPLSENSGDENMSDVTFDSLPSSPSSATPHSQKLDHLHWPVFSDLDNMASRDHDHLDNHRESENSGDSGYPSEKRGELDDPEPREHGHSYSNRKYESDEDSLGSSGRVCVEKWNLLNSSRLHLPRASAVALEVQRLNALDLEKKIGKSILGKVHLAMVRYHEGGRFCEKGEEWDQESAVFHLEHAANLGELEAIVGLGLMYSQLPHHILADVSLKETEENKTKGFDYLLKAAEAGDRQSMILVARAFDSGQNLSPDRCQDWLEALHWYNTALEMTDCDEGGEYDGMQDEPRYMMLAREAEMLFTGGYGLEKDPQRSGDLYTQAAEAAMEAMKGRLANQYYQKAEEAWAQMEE
The description is as above. Format: biochemical. The conditions noted are these: 1 µmol/L of BTK inhibitor.

For the next assay, the target named is T7, p38δ (Homo sapiens, UniProt O15264).
T7 construct: purchased Carna Biosciences
T7 sequence (O15264 1-365): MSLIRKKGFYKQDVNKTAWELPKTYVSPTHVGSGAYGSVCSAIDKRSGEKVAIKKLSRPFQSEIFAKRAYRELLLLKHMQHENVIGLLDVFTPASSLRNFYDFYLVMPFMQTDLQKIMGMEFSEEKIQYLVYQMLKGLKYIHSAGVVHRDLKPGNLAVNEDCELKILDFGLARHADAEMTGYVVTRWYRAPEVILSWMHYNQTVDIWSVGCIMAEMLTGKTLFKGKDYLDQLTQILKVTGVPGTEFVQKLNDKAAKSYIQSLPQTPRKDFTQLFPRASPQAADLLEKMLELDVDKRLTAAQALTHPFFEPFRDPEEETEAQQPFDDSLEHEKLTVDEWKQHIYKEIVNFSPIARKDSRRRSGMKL
The description is as above. Format: biochemical. The conditions noted are these: 1 µmol/L of BTK inhibitor.

The target in the next assay is B-RAF [V600E] (Homo sapiens, UniProt P15056, V600E). Put plainly: Kinase enzyme activity assay at 1 mmol/L ATP (Carna).
The next assay deals with B-RAF (Homo sapiens, UniProt P15056). The description is as above.
In a further assay the target is T8, MEK1 (Homo sapiens, UniProt Q02750).
T8 construct: purchased Carna Biosciences, Inc. 07–41
T8 sequence (Q02750 whole entry): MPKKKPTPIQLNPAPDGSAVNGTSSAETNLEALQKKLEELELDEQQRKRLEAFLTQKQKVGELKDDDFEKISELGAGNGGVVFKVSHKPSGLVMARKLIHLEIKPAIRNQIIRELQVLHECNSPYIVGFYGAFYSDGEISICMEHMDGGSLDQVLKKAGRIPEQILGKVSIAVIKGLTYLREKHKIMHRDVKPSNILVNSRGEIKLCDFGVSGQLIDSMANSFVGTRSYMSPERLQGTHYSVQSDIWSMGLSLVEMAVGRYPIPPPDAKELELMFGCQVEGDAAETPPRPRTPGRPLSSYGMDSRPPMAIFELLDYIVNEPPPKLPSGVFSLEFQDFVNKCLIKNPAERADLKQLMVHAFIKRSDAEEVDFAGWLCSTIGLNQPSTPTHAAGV
Put plainly: Kinase enzyme activity assay (ELISA, in-house). Format: biochemical.

Another assay has as its target T9, BMX (Homo sapiens, UniProt P51813).
T9 construct: purchased Carna Biosciences
Briefly: Kinase panel profiling at 1 µmol/L (mobility shift assay, Carna). Format: biochemical. The conditions noted are these: 1 µmol/L of BTK inhibitor.

Another assay has as its target SIK3 (Homo sapiens, UniProt Q9Y2K2). Put plainly: Competition binding assay (Eurofins DiscoverX).

T4 sequence (P23443 whole entry): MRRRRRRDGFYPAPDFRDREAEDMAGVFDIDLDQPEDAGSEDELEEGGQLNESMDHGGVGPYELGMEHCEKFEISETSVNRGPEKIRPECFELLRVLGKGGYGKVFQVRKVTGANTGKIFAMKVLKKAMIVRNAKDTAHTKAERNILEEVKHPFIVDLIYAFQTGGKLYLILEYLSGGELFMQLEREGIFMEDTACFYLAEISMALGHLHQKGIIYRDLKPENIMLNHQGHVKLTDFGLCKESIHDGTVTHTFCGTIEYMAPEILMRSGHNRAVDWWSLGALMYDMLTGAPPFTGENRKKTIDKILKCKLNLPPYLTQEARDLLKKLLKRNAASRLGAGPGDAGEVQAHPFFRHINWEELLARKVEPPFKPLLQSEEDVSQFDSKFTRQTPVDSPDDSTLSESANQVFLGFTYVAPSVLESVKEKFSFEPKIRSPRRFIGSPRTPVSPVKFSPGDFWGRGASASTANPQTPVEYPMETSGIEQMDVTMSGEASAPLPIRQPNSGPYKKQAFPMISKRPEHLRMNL
Sequence of SIK3 (Q9Y2K2 whole entry): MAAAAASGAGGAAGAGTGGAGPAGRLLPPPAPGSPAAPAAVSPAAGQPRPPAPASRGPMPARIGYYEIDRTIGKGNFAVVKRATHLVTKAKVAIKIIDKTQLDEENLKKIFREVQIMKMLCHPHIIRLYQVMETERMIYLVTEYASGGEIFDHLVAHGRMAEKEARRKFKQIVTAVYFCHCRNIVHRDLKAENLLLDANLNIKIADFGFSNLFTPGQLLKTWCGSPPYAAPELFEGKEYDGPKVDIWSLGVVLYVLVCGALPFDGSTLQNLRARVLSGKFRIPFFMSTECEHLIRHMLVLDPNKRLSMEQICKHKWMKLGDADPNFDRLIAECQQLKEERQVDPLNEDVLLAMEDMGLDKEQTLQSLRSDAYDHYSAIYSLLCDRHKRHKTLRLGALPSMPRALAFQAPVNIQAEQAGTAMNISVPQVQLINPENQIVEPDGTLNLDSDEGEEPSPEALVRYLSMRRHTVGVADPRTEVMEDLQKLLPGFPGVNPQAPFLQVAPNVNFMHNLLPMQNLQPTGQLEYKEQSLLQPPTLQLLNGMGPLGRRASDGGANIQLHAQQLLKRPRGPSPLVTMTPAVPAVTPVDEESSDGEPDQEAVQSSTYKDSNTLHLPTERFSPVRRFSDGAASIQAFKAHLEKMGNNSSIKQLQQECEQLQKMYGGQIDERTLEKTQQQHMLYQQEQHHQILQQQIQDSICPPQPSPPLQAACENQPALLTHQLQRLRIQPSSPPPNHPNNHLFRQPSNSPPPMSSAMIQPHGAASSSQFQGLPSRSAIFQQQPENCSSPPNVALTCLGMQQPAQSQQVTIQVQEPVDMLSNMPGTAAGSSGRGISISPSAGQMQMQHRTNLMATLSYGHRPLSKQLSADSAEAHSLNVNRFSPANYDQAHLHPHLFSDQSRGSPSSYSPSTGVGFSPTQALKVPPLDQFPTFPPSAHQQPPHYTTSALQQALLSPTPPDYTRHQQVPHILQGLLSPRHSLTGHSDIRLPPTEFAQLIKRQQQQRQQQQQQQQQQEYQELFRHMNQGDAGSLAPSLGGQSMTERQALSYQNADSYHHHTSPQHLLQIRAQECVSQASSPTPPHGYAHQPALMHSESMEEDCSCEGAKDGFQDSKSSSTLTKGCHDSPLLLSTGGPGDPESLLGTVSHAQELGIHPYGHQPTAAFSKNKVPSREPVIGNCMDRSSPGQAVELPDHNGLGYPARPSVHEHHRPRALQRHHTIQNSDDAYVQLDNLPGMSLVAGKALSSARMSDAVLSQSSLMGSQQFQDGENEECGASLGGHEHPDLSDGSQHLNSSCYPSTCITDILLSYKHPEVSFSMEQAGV
Sequence of YES (P07947 whole entry): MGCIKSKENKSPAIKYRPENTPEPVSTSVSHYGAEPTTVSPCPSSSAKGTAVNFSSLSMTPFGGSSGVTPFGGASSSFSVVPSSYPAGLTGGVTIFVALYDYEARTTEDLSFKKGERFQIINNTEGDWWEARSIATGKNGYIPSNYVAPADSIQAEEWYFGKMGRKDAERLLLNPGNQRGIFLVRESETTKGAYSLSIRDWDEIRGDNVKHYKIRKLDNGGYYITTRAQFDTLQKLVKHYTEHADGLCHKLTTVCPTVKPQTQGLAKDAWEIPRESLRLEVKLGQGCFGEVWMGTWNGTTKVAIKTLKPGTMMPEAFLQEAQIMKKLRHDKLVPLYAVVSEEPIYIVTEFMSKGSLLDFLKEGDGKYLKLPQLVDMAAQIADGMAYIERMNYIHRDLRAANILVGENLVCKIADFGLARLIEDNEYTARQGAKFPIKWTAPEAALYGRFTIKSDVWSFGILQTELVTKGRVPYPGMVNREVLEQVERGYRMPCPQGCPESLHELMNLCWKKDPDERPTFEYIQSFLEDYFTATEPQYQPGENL
T9 sequence (P51813 whole entry): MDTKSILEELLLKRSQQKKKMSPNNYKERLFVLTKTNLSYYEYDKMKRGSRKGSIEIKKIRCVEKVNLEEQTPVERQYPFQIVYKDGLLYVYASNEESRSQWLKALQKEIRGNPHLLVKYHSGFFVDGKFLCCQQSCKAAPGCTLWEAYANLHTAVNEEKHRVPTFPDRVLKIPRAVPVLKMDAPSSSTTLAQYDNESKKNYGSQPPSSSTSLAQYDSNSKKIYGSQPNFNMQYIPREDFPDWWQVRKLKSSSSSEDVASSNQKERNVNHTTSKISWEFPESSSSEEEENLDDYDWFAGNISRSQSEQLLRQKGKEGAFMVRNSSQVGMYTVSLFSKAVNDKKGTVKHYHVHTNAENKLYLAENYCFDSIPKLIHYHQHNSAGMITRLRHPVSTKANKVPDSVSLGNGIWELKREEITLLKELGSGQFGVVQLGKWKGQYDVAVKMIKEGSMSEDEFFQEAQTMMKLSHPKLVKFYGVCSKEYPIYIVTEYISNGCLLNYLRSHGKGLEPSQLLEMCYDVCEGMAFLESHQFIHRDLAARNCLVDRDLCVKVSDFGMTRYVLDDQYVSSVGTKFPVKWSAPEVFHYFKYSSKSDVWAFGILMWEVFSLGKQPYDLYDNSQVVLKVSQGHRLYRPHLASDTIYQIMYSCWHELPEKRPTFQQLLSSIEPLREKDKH
Procedure for B-RAF [V600E]: Inhibition of MLK1 and B-RAF at K M,ATP was determined in a radiometric assay using ^32P-labeled ATP at Eurofins Cerep SA (Celle-Lévescault, France).
Procedure for SIK3: Inhibition of MLK1 and B-RAF at K M,ATP was determined in a radiometric assay using ^32P-labeled ATP at Eurofins Cerep SA (Celle-Lévescault, France). Interaction with SIK3 was assessed in a competition binding assay at Eurofins DiscoverX LLC (San Diego, CA, USA).

Turning to `CC#CC(=O)N1CCC[C@H]1c1nc(-c2ccc(C(=O)Nc3ccccn3)cc2)c2c(N)nccn12` [acalabrutinib], the “Percentage inhibition of kinase enzyme activity” value (“Percentage inhibition” below) at YES is reported as 21.84%; on SRC, 10.46%; on CK1γ3 it was -14.72%; at EPHB2, -0.11%; at p70S6K, -13.73%; at SIK, 0.26%. Besides, the “Percentage inhibition” value on EEF2K is recorded as -12.14%; on p38δ it was -1.74%.

Turning to `C=CC(=O)N1CCC[C@@H](n2nc(-c3ccc(Oc4ccccc4)cc3)c3c(N)ncnc32)C1` [ibrutinib], the “Percentage inhibition” value on CK1γ3 is on record as 3.83%; on EPHB2, 27.83%; on p70S6K, 19.28%; at SIK it was 8.13%; at EEF2K, 1.15%; on p38δ, -3.68%.

For the compound `O=C(c1ccc(Oc2ccccc2)cc1Cl)c1c[nH]c2ncnc(N[C@@H]3CC[C@@H](CO)OC3)c12` [nemtabrutinib], the IC50 was 220 nM on B-RAF [V600E]; 335 nM at B-RAF; 456 nM at MEK1 (1 mmol/L ATP, read-out: IC50, MEK1); about 9 nM at MEK1 (IC50, MEK1); 8.5 nM and 8.46 nM on MEK1 (K M,bin ATP (10 µmol/L ATP), read-out: IC50, MEK1); over 10000 nM on SIK3. Moreover, the “Percentage inhibition” value at CK1γ3 is listed as 3.75%; on EPHB2 it was 48.93%; at BMX, 100.05%; on p70S6K, 4.51%; on SIK, 96.56%; on EEF2K, 0.24%. Also, the “Percentage inhibition” value at p38δ is on record as -5.79%. For the same compound, the “Binding to SIK3” value at SIK3 (competition binding assay) is reported as “No binding”.

Regarding `COc1ccc(F)cc1C(=O)NCc1ccc(-c2nn([C@@H](C)C(F)(F)F)c(N)c2C(N)=O)cc1` [pirtobrutinib], the “Percentage inhibition” value was 72.60% at YES; 4.75% at SRC; -0.93% at CK1γ3; 6.14% at EPHB2; 29.35% at BMX; -0.48% at p70S6K. For the same compound, the “Percentage inhibition” value on SIK is listed as -2.28%; at EEF2K, -0.12%; at p38δ, -1.92%.

For the compound `C=CC(=O)N1CCC([C@@H]2CCNc3c(C(N)=O)c(-c4ccc(Oc5ccccc5)cc4)nn32)CC1` [zanubrutinib], the “Percentage inhibition” value on EPHB2 is listed as -1.32%.
